In the supplement of paper PMC10307832:

Assays:
Experiment in all cases: relative viability (nuclei count vs DMSO), 5 days (fraction); higher = more cells survive
NCI-H23 = tested on: NCI-H23
Outline: (§1)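 Five library-drug doses in √10 steps were combined with a fixed anchor-drug dose, or a single drug was given alone, by pin tool to lung cancer cell lines in 1536-well plates the day after seeding. Nuclei were stained and counted after 5 days. Relative viability is the nuclei count in treated wells over that in vehicle wells, taken as the median of duplicate plates.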

NCI-H358 = tested on: NCI-H358
Outline: as §1

NCI-H1792 = tested on: NCI-H1792
Outline: as §1

SK-MES-1 = tested on: SK-MES-1
Outline: as §1

NCI-H1793 = tested on: NCI-H1793
Outline: as §1

LC-2-ad = tested on: LC-2-ad
Outline: as §1

NCI-H1395 = tested on: NCI-H1395
Outline: as §1

NCI-H2023 = tested on: NCI-H2023
Outline: as §1

NCI-H650 = tested on: NCI-H650
Outline: as §1

PC-14 = tested on: PC-14
Outline: as §1

COR-L23 = tested on: COR-L23
Outline: as §1

NCI-H2009 = tested on: NCI-H2009
Outline: as §1

NCI-H2347 = tested on: NCI-H2347
Outline: as §1

201T = tested on: 201T
Outline: as §1

HCC-15 = tested on: HCC-15
Outline: as §1

NCI-H1915 = tested on: NCI-H1915
Outline: as §1

NCI-H1437 = tested on: NCI-H1437
Outline: as §1

EMC-BAC-2 = tested on: EMC-BAC-2
Outline: as §1

HCC-366 = tested on: HCC-366
Outline: as §1

COR-L 105 = tested on: COR-L 105
Outline: as §1

NCI-H1755 = tested on: NCI-H1755
Outline: as §1

`Cc1csc(=NC2CCCCC2)n1/N=C/c1ccc(O)c(O)c1O` [MIM1] + CS(=O)(=O)N1CCN(Cc2cc3nc(-c4cccc5[nH]ncc45)nc(N4CCOCC4)c3s2)CC1 [Pictilisib] (partner 1 µM) was tested, and the relative viability (NCI-H23; first compound 0.2 µM) was 0.563, the relative viability (NCI-H23; first compound 2 µM) was 0.517 and the relative viability (NCI-H23; first compound 6.325 µM) was 0.467. For the same molecule, the relative viability (NCI-H23; first compound 20 µM) was 0.192, the relative viability (NCI-H358; first compound 0.2 µM) was 0.309 and the relative viability (NCI-H358; first compound 0.6325 µM) was 0.271. The relative viability (NCI-H358; first compound 2 µM) was 0.254, the relative viability (NCI-H358; first compound 6.325 µM) was 0.247 and the relative viability (NCI-H358; first compound 20 µM) was 0.262. For the same molecule, the relative viability (NCI-H1792; first compound 0.2 µM) was 0.296, the relative viability (NCI-H1792; first compound 0.6325 µM) was 0.293 and the relative viability (NCI-H1792; first compound 2 µM) was 0.26. It also gave a relative viability (NCI-H1792; first compound 6.325 µM) of 0.252, a relative viability (NCI-H1792; first compound 20 µM) of 0.221 and a relative viability (SK-MES-1; first compound 0.2 µM) of 0.358. It also gave a relative viability (SK-MES-1; first compound 0.6325 µM) of 0.346, a relative viability (SK-MES-1; first compound 2 µM) of 0.388 and a relative viability (SK-MES-1; first compound 6.325 µM) of 0.283. The relative viability (SK-MES-1; first compound 20 µM) was 0.252, the relative viability (NCI-H1793; first compound 0.2 µM) was 0.402 and the relative viability (NCI-H1793; first compound 0.6325 µM) was 0.314. It also gave a relative viability (NCI-H1793; first compound 2 µM) of 0.344, a relative viability (NCI-H1793; first compound 6.325 µM) of 0.34 and a relative viability (NCI-H1793; first compound 20 µM) of 0.217. The relative viability (LC-2-ad; first compound 0.2 µM) was 0.437, the relative viability (LC-2-ad; first compound 0.6325 µM) was 0.373 and the relative viability (LC-2-ad; first compound 2 µM) was 0.508. The relative viability (LC-2-ad; first compound 6.325 µM) was 0.406, the relative viability (LC-2-ad; first compound 20 µM) was 0.12 and the relative viability (NCI-H1395; first compound 0.2 µM) was 0.666. The relative viability (NCI-H1395; first compound 0.6325 µM) was 0.61, the relative viability (NCI-H1395; first compound 2 µM) was 0.509 and the relative viability (NCI-H1395; first compound 6.325 µM) was 0.377. The relative viability (NCI-H1395; first compound 20 µM) was 0.365, the relative viability (NCI-H2023; first compound 0.2 µM) was 0.238 and the relative viability (NCI-H2023; first compound 0.6325 µM) was 0.26. For the same molecule, the relative viability (NCI-H2023; first compound 2 µM) was 0.226, the relative viability (NCI-H2023; first compound 6.325 µM) was 0.126 and the relative viability (NCI-H2023; first compound 20 µM) was 0.067. The relative viability (NCI-H650; first compound 0.2 µM) was 0.988, the relative viability (NCI-H650; first compound 0.6325 µM) was 0.944 and the relative viability (NCI-H650; first compound 2 µM) was 0.987. For the same molecule, the relative viability (NCI-H650; first compound 6.325 µM) was 0.975, the relative viability (NCI-H650; first compound 20 µM) was 0.505 and the relative viability (PC-14; first compound 0.2 µM) was 0.629. The relative viability (PC-14; first compound 0.6325 µM) was 0.709, the relative viability (PC-14; first compound 2 µM) was 0.628 and the relative viability (PC-14; first compound 6.325 µM) was 0.55. For the same molecule, the relative viability (PC-14; first compound 20 µM) was 0.488, the relative viability (COR-L23; first compound 0.2 µM) was 0.692 and the relative viability (COR-L23; first compound 0.6325 µM) was 0.654. The relative viability (COR-L23; first compound 2 µM) was 0.844, the relative viability (COR-L23; first compound 6.325 µM) was 0.525 and the relative viability (COR-L23; first compound 20 µM) was 0.217. The relative viability (NCI-H2009; first compound 0.2 µM) was 0.931, the relative viability (NCI-H2009; first compound 0.6325 µM) was 0.812 and the relative viability (NCI-H2009; first compound 2 µM) was 0.85. It also gave a relative viability (NCI-H2009; first compound 6.325 µM) of 0.582, a relative viability (NCI-H2009; first compound 20 µM) of 0.173 and a relative viability (NCI-H2347; first compound 0.2 µM) of 0.885. The relative viability (NCI-H2347; first compound 0.6325 µM) was 0.733, the relative viability (NCI-H2347; first compound 2 µM) was 0.72 and the relative viability (NCI-H2347; first compound 6.325 µM) was 0.619. For the same molecule, the relative viability (NCI-H2347; first compound 20 µM) was 0.359, the relative viability (201T; first compound 0.2 µM) was 0.688 and the relative viability (201T; first compound 0.6325 µM) was 0.659. The relative viability (201T; first compound 2 µM) was 0.645, the relative viability (201T; first compound 6.325 µM) was 0.654 and the relative viability (201T; first compound 20 µM) was 0.61. The relative viability (HCC-15; first compound 0.2 µM) was 0.872, the relative viability (HCC-15; first compound 0.6325 µM) was 0.455 and the relative viability (HCC-15; first compound 2 µM) was 0.824. It also gave a relative viability (HCC-15; first compound 6.325 µM) of 0.53, a relative viability (HCC-15; first compound 20 µM) of 0.11 and a relative viability (NCI-H1915; first compound 0.2 µM) of 1. The relative viability (NCI-H1915; first compound 0.6325 µM) was 0.606, the relative viability (NCI-H1915; first compound 2 µM) was 0.883 and the relative viability (NCI-H1915; first compound 6.325 µM) was 0.708. For the same molecule, the relative viability (NCI-H1915; first compound 20 µM) was 0.477, the relative viability (NCI-H1437; first compound 0.2 µM) was 0.482 and the relative viability (NCI-H1437; first compound 0.6325 µM) was 0.382. For the same molecule, the relative viability (NCI-H1437; first compound 2 µM) was 0.516, the relative viability (NCI-H1437; first compound 6.325 µM) was 0.269 and the relative viability (NCI-H1437; first compound 20 µM) was 0.128. For the same molecule, the relative viability (EMC-BAC-2; first compound 0.2 µM) was 0.538, the relative viability (EMC-BAC-2; first compound 0.6325 µM) was 0.479 and the relative viability (EMC-BAC-2; first compound 2 µM) was 0.542. The relative viability (EMC-BAC-2; first compound 6.325 µM) was 0.562, the relative viability (EMC-BAC-2; first compound 20 µM) was 0.238 and the relative viability (HCC-366; first compound 0.2 µM) was 0.166. It also gave a relative viability (HCC-366; first compound 0.6325 µM) of 0.153, a relative viability (HCC-366; first compound 2 µM) of 0.122 and a relative viability (HCC-366; first compound 6.325 µM) of 0.183. For the same molecule, the relative viability (HCC-366; first compound 20 µM) was 0.0561, the relative viability (COR-L 105; first compound 0.2 µM) was 0.424 and the relative viability (COR-L 105; first compound 0.6325 µM) was 0.366. The relative viability (COR-L 105; first compound 2 µM) was 0.344, the relative viability (COR-L 105; first compound 6.325 µM) was 0.384 and the relative viability (COR-L 105; first compound 20 µM) was 0.291. It also gave a relative viability (NCI-H1755; first compound 0.2 µM) of 0.465, a relative viability (NCI-H1755; first compound 0.6325 µM) of 0.372 and a relative viability (NCI-H1755; first compound 2 µM) of 0.42. The relative viability (NCI-H1755; first compound 6.325 µM) was 0.37 and the relative viability (NCI-H1755; first compound 20 µM) was 0.179.
